# Measured values taken from PubChem BioAssay (NCI).
#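 48-hour exposure; five concentrations; linearly interpolated endpoints. Definition used: TGI = concentration required for complete inhibition of growth.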
# What was measured:
# Assay in all cases: NCI-60 cell line screen, 48 h
# SF-539 CNS = system: SF-539 CNS
# SN12C renal = system: SN12C renal
# NCI-H226 lung = system: NCI-H226 lung
# SNB-19 CNS = system: SNB-19 CNS
# HCC-2998 colon = system: HCC-2998 colon
# SK-OV-3 ovarian = system: SK-OV-3 ovarian
# HS 578T breast = system: HS 578T breast
# MCF7 breast = system: MCF7 breast
# MALME-3M melanoma = system: MALME-3M melanoma
# OVCAR-3 ovarian = system: OVCAR-3 ovarian
# BT-549 breast = system: BT-549 breast
# MDA-MB-231 breast = system: MDA-MB-231 breast
# CCRF-CEM leukemia = system: CCRF-CEM leukemia
# 786-0 renal = system: 786-0 renal
# MDA-N = system: MDA-N
# KM12 colon = system: KM12 colon
# HCT-116 colon = system: HCT-116 colon
# ACHN renal = system: ACHN renal
# A498 renal = system: A498 renal
# HL-60(TB) leukemia = system: HL-60(TB) leukemia
# EKVX NSCLC = system: EKVX NSCLC
# SF-268 CNS = system: SF-268 CNS
# OVCAR-5 ovarian = system: OVCAR-5 ovarian
# HT29 colon = system: HT29 colon
# NCI-H23 lung = system: NCI-H23 lung
# CAKI-1 renal = system: CAKI-1 renal
# OVCAR-4 ovarian = system: OVCAR-4 ovarian
# TK-10 renal = system: TK-10 renal
# SF-295 CNS = system: SF-295 CNS
# SK-MEL-2 melanoma = system: SK-MEL-2 melanoma
# SNB-75 CNS = system: SNB-75 CNS
# A549 NSCLC = system: A549 NSCLC
# NCI/ADR-RES ovarian = system: NCI/ADR-RES ovarian
# SW-620 colon = system: SW-620 colon
# IGROV1 ovarian = system: IGROV1 ovarian
# UACC-62 melanoma = system: UACC-62 melanoma
# M14 melanoma = system: M14 melanoma
# U251 CNS = system: U251 CNS
# SK-MEL-5 melanoma = system: SK-MEL-5 melanoma
# SR leukemia = system: SR leukemia
# DU-145 prostate = system: DU-145 prostate
# MOLT-4 leukemia = system: MOLT-4 leukemia
# UO-31 renal = system: UO-31 renal
# NCI-H460 lung = system: NCI-H460 lung
# OVCAR-8 ovarian = system: OVCAR-8 ovarian
# NCI-H522 lung = system: NCI-H522 lung
# UACC-257 melanoma = system: UACC-257 melanoma
# HCT-15 colon = system: HCT-15 colon
# SK-MEL-28 melanoma = system: SK-MEL-28 melanoma
# K-562 leukemia = system: K-562 leukemia
# PC-3 prostate = system: PC-3 prostate
# COLO 205 colon = system: COLO 205 colon
# T-47D breast = system: T-47D breast
# RXF 393 renal = system: RXF 393 renal
# HOP-62 NSCLC = system: HOP-62 NSCLC
# LOX IMVI melanoma = system: LOX IMVI melanoma
# RPMI-8226 leukemia = system: RPMI-8226 leukemia
# HOP-92 NSCLC = system: HOP-92 NSCLC
# MDA-MB-435 = system: MDA-MB-435
smiles,measurement,setting,value
Cc1cc(C#N)c[n+](C)c1,TGI,SF-539 CNS,> 100 µM
same,TGI,SN12C renal,> 100 µM
same,TGI,NCI-H226 lung,> 100 µM
same,TGI,SNB-19 CNS,> 100 µM
same,TGI,HCC-2998 colon,> 100 µM
same,TGI,SK-OV-3 ovarian,> 100 µM
same,TGI,HS 578T breast,> 100 µM
same,TGI,MCF7 breast,> 100 µM
same,TGI,MALME-3M melanoma,> 100 µM
same,TGI,OVCAR-3 ovarian,> 100 µM
same,TGI,BT-549 breast,> 100 µM
same,TGI,MDA-MB-231 breast,> 100 µM
same,TGI,CCRF-CEM leukemia,> 100 µM
same,TGI,786-0 renal,> 100 µM
same,TGI,MDA-N,> 100 µM
same,TGI,KM12 colon,> 100 µM
same,TGI,HCT-116 colon,> 100 µM
same,TGI,ACHN renal,> 100 µM
same,TGI,A498 renal,> 100 µM
same,TGI,HL-60(TB) leukemia,> 100 µM
same,TGI,EKVX NSCLC,> 100 µM
same,TGI,SF-268 CNS,> 100 µM
same,TGI,OVCAR-5 ovarian,> 100 µM
same,TGI,HT29 colon,> 100 µM
same,TGI,NCI-H23 lung,> 100 µM
same,TGI,CAKI-1 renal,> 100 µM
same,TGI,OVCAR-4 ovarian,> 100 µM
same,TGI,TK-10 renal,> 100 µM
same,TGI,SF-295 CNS,> 100 µM
same,TGI,SK-MEL-2 melanoma,> 100 µM
same,TGI,SNB-75 CNS,> 100 µM
same,TGI,A549 NSCLC,> 100 µM
same,TGI,NCI/ADR-RES ovarian,> 100 µM
same,TGI,SW-620 colon,> 100 µM
same,TGI,IGROV1 ovarian,> 100 µM
same,TGI,UACC-62 melanoma,> 100 µM
same,TGI,M14 melanoma,> 100 µM
same,TGI,U251 CNS,> 100 µM
same,TGI,SK-MEL-5 melanoma,> 100 µM
same,TGI,SR leukemia,> 100 µM
same,TGI,DU-145 prostate,> 100 µM
same,TGI,MOLT-4 leukemia,> 100 µM
same,TGI,UO-31 renal,> 100 µM
same,TGI,NCI-H460 lung,> 100 µM
same,TGI,OVCAR-8 ovarian,> 100 µM
same,TGI,NCI-H522 lung,> 100 µM
same,TGI,UACC-257 melanoma,> 100 µM
same,TGI,HCT-15 colon,> 100 µM
same,TGI,SK-MEL-28 melanoma,> 100 µM
same,TGI,K-562 leukemia,> 100 µM
same,TGI,PC-3 prostate,> 100 µM
same,TGI,COLO 205 colon,> 100 µM
same,TGI,T-47D breast,> 100 µM
same,TGI,RXF 393 renal,> 100 µM
same,TGI,HOP-62 NSCLC,> 100 µM
CC1=NCC[N+]1(CCc1ccccc1)Cc1ccccc1 (stereo not given),TGI,SN12C renal,> 100 µM
same,TGI,NCI-H226 lung,> 100 µM
same,TGI,SNB-19 CNS,> 100 µM
same,TGI,HCC-2998 colon,> 100 µM
same,TGI,SK-OV-3 ovarian,> 100 µM
same,TGI,HS 578T breast,> 100 µM
same,TGI,MCF7 breast,> 100 µM
same,TGI,MALME-3M melanoma,> 100 µM
same,TGI,OVCAR-3 ovarian,91 µM
same,TGI,BT-549 breast,> 100 µM
same,TGI,MDA-MB-231 breast,> 100 µM
same,TGI,CCRF-CEM leukemia,> 100 µM
same,TGI,786-0 renal,> 100 µM
same,TGI,MDA-N,> 100 µM
same,TGI,KM12 colon,> 100 µM
same,TGI,HCT-116 colon,> 100 µM
same,TGI,ACHN renal,> 100 µM
same,TGI,A498 renal,> 100 µM
same,TGI,HL-60(TB) leukemia,68.7 µM
same,TGI,EKVX NSCLC,> 100 µM
same,TGI,SF-268 CNS,> 100 µM
same,TGI,OVCAR-5 ovarian,> 100 µM
same,TGI,HT29 colon,> 100 µM
same,TGI,NCI-H23 lung,> 100 µM
same,TGI,OVCAR-4 ovarian,> 100 µM
same,TGI,TK-10 renal,> 100 µM
same,TGI,SF-295 CNS,> 100 µM
same,TGI,SK-MEL-2 melanoma,> 100 µM
same,TGI,LOX IMVI melanoma,> 100 µM
same,TGI,SNB-75 CNS,> 100 µM
same,TGI,A549 NSCLC,> 100 µM
same,TGI,NCI/ADR-RES ovarian,> 100 µM
same,TGI,SW-620 colon,> 100 µM
same,TGI,IGROV1 ovarian,> 100 µM
same,TGI,UACC-62 melanoma,> 100 µM
same,TGI,RPMI-8226 leukemia,69.8 µM
same,TGI,M14 melanoma,> 100 µM
same,TGI,U251 CNS,> 100 µM
same,TGI,SK-MEL-5 melanoma,> 100 µM
same,TGI,SR leukemia,> 100 µM
same,TGI,DU-145 prostate,> 100 µM
same,TGI,UO-31 renal,> 100 µM
same,TGI,NCI-H460 lung,> 100 µM
same,TGI,OVCAR-8 ovarian,> 100 µM
same,TGI,NCI-H522 lung,72.3 µM
same,TGI,UACC-257 melanoma,91.7 µM
same,TGI,HCT-15 colon,> 100 µM
same,TGI,SK-MEL-28 melanoma,> 100 µM
same,TGI,K-562 leukemia,31 µM
same,TGI,COLO 205 colon,21.5 µM
same,TGI,T-47D breast,> 100 µM
same,TGI,RXF 393 renal,> 100 µM
same,TGI,HOP-92 NSCLC,49.8 µM
same,TGI,HOP-62 NSCLC,> 100 µM
CC1(F)C=CC(=O)C=C1,TGI,SF-539 CNS,> 100 µM
same,TGI,SN12C renal,> 100 µM
same,TGI,NCI-H226 lung,> 100 µM
same,TGI,SNB-19 CNS,> 100 µM
same,TGI,HCC-2998 colon,> 100 µM
same,TGI,SK-OV-3 ovarian,> 100 µM
same,TGI,HS 578T breast,> 100 µM
same,TGI,MCF7 breast,> 100 µM
same,TGI,MALME-3M melanoma,68.9 µM
same,TGI,OVCAR-3 ovarian,> 100 µM
same,TGI,BT-549 breast,> 100 µM
same,TGI,MDA-MB-231 breast,> 100 µM
same,TGI,CCRF-CEM leukemia,> 100 µM
same,TGI,786-0 renal,35 µM
same,TGI,MDA-N,> 100 µM
same,TGI,KM12 colon,> 100 µM
same,TGI,HCT-116 colon,> 100 µM
same,TGI,ACHN renal,> 100 µM
same,TGI,A498 renal,> 100 µM
same,TGI,HL-60(TB) leukemia,93.1 µM
same,TGI,EKVX NSCLC,> 100 µM
same,TGI,SF-268 CNS,> 100 µM
same,TGI,OVCAR-5 ovarian,> 100 µM
same,TGI,HT29 colon,> 100 µM
same,TGI,NCI-H23 lung,> 100 µM
same,TGI,CAKI-1 renal,> 100 µM
same,TGI,OVCAR-4 ovarian,> 100 µM
same,TGI,TK-10 renal,> 100 µM
same,TGI,SF-295 CNS,> 100 µM
same,TGI,SK-MEL-2 melanoma,> 100 µM
same,TGI,LOX IMVI melanoma,31.4 µM
same,TGI,SNB-75 CNS,> 100 µM
same,TGI,A549 NSCLC,> 100 µM
same,TGI,NCI/ADR-RES ovarian,34.8 µM
same,TGI,SW-620 colon,42.3 µM
same,TGI,UACC-62 melanoma,> 100 µM
same,TGI,RPMI-8226 leukemia,> 100 µM
same,TGI,M14 melanoma,> 100 µM
same,TGI,U251 CNS,> 100 µM
same,TGI,SK-MEL-5 melanoma,> 100 µM
same,TGI,SR leukemia,> 100 µM
same,TGI,DU-145 prostate,> 100 µM
same,TGI,MOLT-4 leukemia,> 100 µM
same,TGI,UO-31 renal,> 100 µM
same,TGI,NCI-H460 lung,> 100 µM
same,TGI,OVCAR-8 ovarian,42.7 µM
same,TGI,MDA-MB-435,> 100 µM
same,TGI,NCI-H522 lung,> 100 µM
same,TGI,UACC-257 melanoma,> 100 µM
same,TGI,HCT-15 colon,45.7 µM
same,TGI,SK-MEL-28 melanoma,> 100 µM
same,TGI,K-562 leukemia,> 100 µM
same,TGI,PC-3 prostate,> 100 µM
same,TGI,COLO 205 colon,> 100 µM
same,TGI,HOP-92 NSCLC,72.1 µM
same,TGI,HOP-62 NSCLC,> 100 µM
